The values below come from patent US20140113899A1 (priority 2011, published 2014).

Molecules are shown by their SMILES. Like-named read-outs stand apart in the source and are kept apart here. Some results are limits rather than exact numbers.

One experiment relates to Pythium aphanidermatum. In words: Test Example 19: in vitro antimicrobial activity test with metalaxyl and Compound I-1. It counts as cell-based. The following applies: Compound I-1 0.005 ppm alone.
In the next experiment the test system is Gaeumannomyces graminis. In words: Test Example 13: in vitro antimicrobial activity test with prochloraz and Compound I-1. It is filed as cell-based. The source says: Then, a mycelial growth inhibition ratio against Gaeumannomyces graminis was obtained.
The subject of another experiment is Alternaria alternata. As to the kind of experiment: Test Example 15: in vitro antimicrobial activity test with fenpropimorph and Compound I-1. It is filed as cell-based. The source says:
Then, a mycelial growth inhibition ratio against Alternaria alternata was obtained.

For experiment [1], the system named is Microdocum nivale. As to the kind of experiment: Test Example 14: in vitro antimicrobial activity test with prothioconazole and Compound I-1.
Experiment [2] has as its system Microdocum nivale. As to the kind of experiment: Test Example 10: in vitro antimicrobial activity test with penthiopyrad and Compound I-1.
Method: (§1) In the test, a flora disk of 4 mm in diameter was cut from an area around a colony of Microdocum nivale pre-cultured in advance in a pre-culture PDA medium, and Microdocum nivale was inoculated on the PDA medium where chemical agents were mixed. After culturing at 25° C. for 3 days, a diameter of a grown colony was measured. Then, a mycelial growth inhibition ratio was calculated by comparing the diameter of this grown colony with a diameter of a colony on a medium without the chemical agents. As in Test Example 1, a cooperative effect was judged by use of Colby's formula.
Then, a mycelial growth inhibition ratio against Microdocum nivale was obtained.
For experiment [3], the system named is Microdocum nivale. As to the kind of experiment: Test Example 9: in vitro antimicrobial activity test with benodanil and Compound I-1. The following applies: Compound I-1 0.078 ppm alone.
Method: as §1
Experiment [4] relates to Fusarium graminearum. It counts as in vivo. The following applies: wettable powder containing only the compound, 500 mg/L, sprayed at 1,000 L/ha; fourth to seventh days after inoculation.
The subject of the next experiment is Glomerella cingulata. In words: Test Example 4: in vitro antimicrobial activity test with bixafen and Compound I-1. It counts as cell-based.
In the next experiment the test system is Botrytis cinere. As to the kind of experiment: Test Example 11: in vitro antimicrobial activity test with azoxystrobin and Compound I-1. It is filed as cell-based. The source says: Then, a mycelial growth inhibition ratio against Botrytis cinere was obtained.
Experiment [5] relates to Fusarium graminearum. It counts as in vivo.
The test system of another experiment is Puccinia recondida. In words: Test Example 7: controlling effect of isopyrazam and Compound I-1 on wheat brown rust. It is filed as in vivo. As for the experimental part:
Isopyrazam and Compound I-1 were mixed at a given ratio and a test for a cooperative effect against wheat brown rust was carried out. First, a chemical suspension containing isopyrazam and Compound I-1 were prepared and sprayed on a pot of a wheat plant at two leaves stage so that thus sprayed isopyrazam and Compound I-1 became a predetermined dosage. Then, after the pot was left for approximately one hour at a room temperature so that the plant body dries, Puccinia recondida was inoculated by spraying an urediniospore suspended solution (1×10^5/ml) of Puccinia recondida. Then, the pot was kept in a wet chamber at 20° C. for 15 hours, and after 14 days, onset of disease was examined by a disease-onset area index. Here, the test was conducted by use of one plot pot.

Experiment [6] concerns Pseudocercoporella herpotrichoides. In words: Test Example 16: in vitro antimicrobial activity test with thiophanate-methyl and Compound I-1. It is filed as cell-based.
The subject of a further experiment is Rhizoctonia solani. As to the kind of experiment: Test Example 18: in vitro antimicrobial activity test with chlorothalonil and Compound I-1. It counts as cell-based. The following applies: Compound I-1 1.25 ppm alone.
The test system of experiment [7] is Fusarium graminearum. It is filed as in vivo. The note with it: Furametpyr 20 g/ha alone.
In experiment [8] the test system is Fusarium graminearum. It is filed as in vivo. The note with it: Fluopyram 20 g/ha alone.

As for `C[C@@]1(CCl)CC[C@H](Cc2ccc(Cl)cc2)[C@@]1(O)Cn1cncn1` (racemic) [Compound I-1, (1RS,2SR,5SR)-5-(4-chlorobenzyl)-2-chloromethyl-2-methyl-1-(1H-1,2,4-triazole-1-ylmethyl)cyclopentanol], the “Mycelial Growth Inhibition Ratio % Measured Value” with Pythium aphanidermatum stood at 9%; with Gaeumannomyces graminis (Compound I-1 0.02 ppm alone), 0%; in the experiment on Gaeumannomyces graminis (Compound I-1 0.078 ppm alone) it was 17%; in the experiment with Gaeumannomyces graminis (Compound I-1 0.313 ppm alone) it was 74%; in the experiment on Alternaria alternata (Compound I-1 0.02 ppm alone), 3%; in the experiment with Alternaria alternata (Compound I-1 0.078 ppm alone), 24%. Moreover, the “Mycelial Growth Inhibition Ratio % Measured Value” is reported as 50% in the experiment on Alternaria alternata (Compound I-1 0.313 ppm alone); 8% in the experiment on Microdocum nivale [1] (Compound I-1 0.078 ppm alone); 34% in the experiment on Microdocum nivale [1] (Compound I-1 0.313 ppm alone); 5% in the experiment on Microdocum nivale [2] (Compound I-1 0.005 ppm alone); 10% with Microdocum nivale [2] (Compound I-1 0.02 ppm alone); 12% in the experiment on Microdocum nivale [2] (Compound I-1 0.078 ppm alone). Further, the “Mycelial Growth Inhibition Ratio % Measured Value” in the experiment with Microdocum nivale [3] was 8%; with Glomerella cingulata (Compound (I) 0.005 ppm alone), 13%; in the experiment with Glomerella cingulata (Compound (I) 0.02 ppm alone), 23%; in the experiment with Botrytis cinere (Compound I-1 0.02 ppm alone), 25%; with Botrytis cinere (Compound I-1 0.078 ppm alone) it was 47%; in [6] (Compound I-1 0.078 ppm alone), 3%. The “Mycelial Growth Inhibition Ratio % Measured Value” was determined as 42% in [6] (Compound I-1 0.313 ppm alone) and 68% in the experiment on Rhizoctonia solani. In the experiment on Fusarium graminearum [4], this compound came in with a protective value of at least 90%. For the same compound, the “Actual Protective Value” in the experiment on Fusarium graminearum [5] (Compound (I) 4 g/ha alone) was 9.4; in the experiment with Fusarium graminearum [5] (Compound (I) 8 g/ha alone), 12.9; in the experiment on Puccinia recondida (Compound I-1 0.1875 g/ha alone) it was 13; in the experiment with Puccinia recondida (Compound I-1 0.375 g/ha alone), 37; in the experiment on Puccinia recondida (Compound I-1 0.75 g/ha alone) it was 67; in the experiment with Puccinia recondida (Compound I-1 1.5 g/ha alone) it was 80. In addition, the “Actual Protective Value” in the experiment with Puccinia recondida (Compound I-1 3 g/ha alone) is reported as 93.
Regarding `Cc1nn(C)c(Cl)c1C(=O)Nc1cccc2c1C(C)OC2(C)C` (stereo not drawn) [Furametpyr], the “Actual Protective Value” in the experiment with Fusarium graminearum [7] is given as 0.
Regarding `O=C(NCCc1ncc(C(F)(F)F)cc1Cl)c1ccccc1C(F)(F)F` [Fluopyram], the “Actual Protective Value” in the experiment on Fusarium graminearum [8] stood at 0.
